This is an account of results in patent US12207654B2, “Bactericidal agent for agricultural or horticultural use, plant disease control method, and product for plant disease control use” (Kureha Corporation, priority 2019, dated 2025).

In general, inhibition refers to the share of the control response that was lost under treatment.

For assay [1], the system named is Pyrenophora graminea. The assay is described as follows: In vitro antimicrobial activity test on PDA plate media (colony diameter). It counts as cell-based. The conditions noted are these: used alone.
The test system of assay [2] is Gaeumannomyces graminis. The assay is described as above. The class given is cell-based. The conditions noted are these: used alone.
The test system of assay [3] is Alternaria alternata apple pathotype. Described as above. The class given is cell-based. The following applies: used alone.
For assay [4], the system named is Fusarium fujikuroi. Described as above. The class given is cell-based. The conditions noted are these: used alone.
Assay [5] relates to Glomerella cingulata. The assay is described as above. It counts as cell-based.
Assay [6] deals with Penicillium italicum. Described as above. It counts as cell-based. The conditions noted are these: Penicillium italicum.
In assay [7] the test system is Microdocum nivale. Described as above. The class given is cell-based. The conditions noted are these: used alone.
In assay [8] the test system is Pyrenophola teres. The description is as above. The conditions noted are these: read-out: Actual fungal growth inhibition rate (%).
Excerpt: Apart from this, Pyrenophola teres pre-cultivated on chemical-free plate media was punched out with a 4-mm diameter cork borer and inoculated on chemical-containing PDA plate media.
In the above formula, R represents the fungal growth inhibition rate (%), dc represents the colony diameter on the chemical-free plate, and dt represents the colony diameter on the chemical-containing plate. […] Inhibition rate when mixed for use(theoretical value)=α+((100−α)×β/100
In the above formula, α and β represent the inhibition rate when each compound is used alone.
For assay [9], the system named is Cercospora beticola. The assay is described as follows: In vitro antimicrobial activity test in 96-well microplate (absorbance at 620 nm). The class given is cell-based. The conditions noted are these: used alone.
Assay [10] concerns Colletotrichum lindemuthianum. Described as above. It counts as cell-based. The following applies: used alone.
Assay [11] deals with Fusarium graminearum. Briefly: microbe, parasite or virus in culture. It counts as cell-based.
Assay [12] deals with wheat leaf rust (Puccinia recondita). The assay is described as follows: Controlling effect test against wheat leaf rust (foliar spray on potted wheat seedlings). It counts as in vivo. The conditions noted are these: sprayed alone.
The mark [13] stands for this setting: Pyrenophora graminea, 0.50 ppm, read-out: Actual fungal growth inhibition rate (%).
The mark [14] stands for this setting: Gaeumannomyces graminis, 0.03 ppm, read-out: Actual fungal growth inhibition rate (%).
Where [15] appears, read: Gaeumannomyces graminis, 0.13 ppm, read-out: Actual fungal growth inhibition rate (%).
Setting [16] is: Fusarium fujikuroi, read-out: Actual fungal growth inhibition rate (%).
Where [17] appears, read: Colletotrichum gloeosporioides, used alone, 0.50 ppm, read-out: Actual fungal growth inhibition rate (%).

Several values for one entry are separate records, joined by “and”; a condition that tells them apart may be missing. Equal entries are not always repeated.

In the case of `CON=C(C(=O)OC)c1ccccc1CON=C(C)c1cccc(C(F)(F)F)c1` [Trifloxystrobin, trifloxystrobin, reference compound], the inhibition at 0.13 ppm in assay [1] (Pyrenophora graminea, 0.13 ppm, read-out: Actual fungal growth inhibition rate (%)) came to 54%; in assay [2] (setting [15]), 11%; in [3] (Alternaria alternata, 0.13 ppm, read-out: Actual fungal growth inhibition rate (%)) it was 48%. The inhibition at 0.5 ppm came out at 54% in [1] (setting [13]); 15% in assay [2] (Gaeumannomyces graminis, 0.50 ppm, read-out: Actual fungal growth inhibition rate (%)); 46% in [5] (setting [17]); 90% in assay [6] (used alone, 0.50 ppm, read-out: Actual fungal growth inhibition rate (%)). For the same compound, the “Actual fungal growth inhibition rate (%)” value came to 55% in assay [1] (0.50 ppm) and 9% in assay [2] (0.50 ppm). Further, the inhibition at 0.002 ppm is 8% in assay [2] (Gaeumannomyces graminis, 0.002 ppm, read-out: Actual fungal growth inhibition rate (%)) and 0% in assay [4] (Fusarium fujikuroi, 0.002 ppm, read-out: Actual fungal growth inhibition rate (%)). The inhibition at 0.03 ppm in [2] (setting [14]) was 5%; in assay [7] (0.03 ppm, read-out: Actual fungal growth inhibition rate (%)), 65%. Also, the inhibition at 0.01 ppm in assay [4] (setting [16]) turned out to be 10%.

As for `COC(=O)Nc1nc2ccccc2[nH]1` [Carbendazim, carbendazim], in [8], the inhibition at 0.625 ppm is 0%, the inhibition at 2.5 ppm was found to be 6%, the inhibition at 10 ppm was found to be 13% and the inhibition at 40 ppm worked out at 14%.

Regarding `Cc1cccc(-n2nnn(C)c2=O)c1COc1ccn(-c2ccc(Cl)cc2)n1` [Metyltetraprole, metyltetraprole], in [1] (0.001 ppm), the “Actual fungal growth inhibition rate (%)” value is reported as 0%. Also, the “Actual growth inhibition rate” value in assay [9] (0.08 ppm) is listed as 72%; in assay [10] (0.08 ppm), 6%; in assay [10] (0.4 ppm) it was 73%; in [10] (2.0 ppm), 91%.

As for `COC(=O)C(O)(Cn1cncn1)c1ccc(Oc2ccc(Cl)cc2)cc1Br` (centres unmarked) [Azole derivative I-228], the “Actual fungal growth inhibition rate (%)” value in [11] amounted to 39%; in assay [1] (0.50 ppm) it was 84%; in assay [2] (0.13 ppm) it was 89%; in [2] (0.31 ppm), 63%; in assay [2] (1.25 ppm), 67%; in assay [2] (5.00 ppm) it was 71%. In addition, the “Actual fungal growth inhibition rate (%)” value in assay [4] (0.50 ppm) came out at 21%; in assay [5] (Glomerella cingulata, single chemical at 0.01 ppm), 0%; in assay [5] (Glomerella cingulata, single chemical at 0.03 ppm), 16%; in [5] (used alone, 0.01 ppm), 2%; in assay [5] (used alone, 0.03 ppm) it was 12%; in assay [5] (used alone, 0.50 ppm), 82%. For the same compound, the “Actual fungal growth inhibition rate (%)” value in [6] (single chemical at 0.13 ppm) turned out to be 56%; in assay [7] (1.25 ppm) it was 56%; in [7] (5.00 ppm) it was 86%.

On to `COC(=O)C(O)(Cn1cncn1)c1ccc(Oc2ccc(Cl)cc2)cc1Cl` (centres unmarked) [Azole derivative I-1, methyl 2-hydroxy-2-(2-chloro-4-(4-chlorophenoxy)phenyl)-3-(1H-1,2,4-triazole-1-yl)propanoate], for which the Actual controlling rate in [12] (0.63 g/ha) was 16% and 11%; in assay [12] (1.25 g/ha), 40% and 67%; in [12] (2.5 g/ha) it was 83% and 98%. The inhibition at 0.25 ppm in assay [11] (Fusarium graminearum, read-out: Actual fungal growth inhibition rate (%)) worked out at 0%; in assay [8], 48%. Further, the inhibition at 0.01 ppm in assay [1] (Pyrenophora graminea, 0.01 ppm, read-out: Actual fungal growth inhibition rate (%)) stood at 37%; in assay [3] (Alternaria alternata, 0.01 ppm, read-out: Actual fungal growth inhibition rate (%)), 0%; in assay [4] (setting [16]), 0%; in [5] (Colletotrichum gloeosporioides, used alone, 0.01 ppm, read-out: Actual fungal growth inhibition rate (%)), 0%. Moreover, the inhibition at 0.03 ppm in assay [1] (Pyrenophora graminea, 0.03 ppm, read-out: Actual fungal growth inhibition rate (%)) amounted to 71%; in [2] (setting [14]) it was 31%; in assay [3] (Alternaria alternata, 0.03 ppm, read-out: Actual fungal growth inhibition rate (%)) it was 0%; in [4] (Fusarium fujikuroi, 0.03 ppm, read-out: Actual fungal growth inhibition rate (%)), 4%; in assay [5] (Colletotrichum gloeosporioides, used alone, 0.03 ppm, read-out: Actual fungal growth inhibition rate (%)), 9%. For the same compound, the inhibition at 0.5 ppm in [1] (setting [13]) turned out to be 94%; in [4] (Fusarium fujikuroi, 0.50 ppm, read-out: Actual fungal growth inhibition rate (%)), 59%; in [5] (setting [17]), 77%; in [9] (Cercospora beticola, 0.5 ppm, read-out: Actual growth inhibition rate), 6%. The “Actual fungal growth inhibition rate (%)” value in assay [1] (0.03 ppm) is 70% and 68%; in assay [1] (0.13 ppm), 81% and 80% and 57% and 82%; in [1] (0.50 ppm), 95% and 93%; in [2] (0.03 ppm), 28%; in assay [2] (0.13 ppm) it was 93%; in assay [3] (0.13 ppm) it was 1%. In addition, in assay [5] (used alone, 0.50 ppm), the “Actual fungal growth inhibition rate (%)” value is 75%. The inhibition at 0.13 ppm in assay [2] (setting [15]) was determined as 94%; in assay [5] (Colletotrichum gloeosporioides, used alone, 0.13 ppm, read-out: Actual fungal growth inhibition rate (%)) it was 49%. The inhibition at 0.02 ppm in assay [9] (Cercospora beticola, 0.02 ppm, read-out: Actual growth inhibition rate) is 0%. Moreover, the inhibition at 2.5 ppm in assay [9] (Cercospora beticola, 2.5 ppm, read-out: Actual growth inhibition rate) was 99%. Besides, the inhibition at 0.1 ppm in [10] (Colletotrichum lindemuthianum, 0.10 ppm, read-out: Actual growth inhibition rate) was 0%.
